Measured values as given in patent US5028605A, “8-alkylaminoimidazo(1,2-a)pyrazines and derivatives, their preparation and their application in therapy” (l'Universite de Montpellier I, priority 1986, dated 1991).

Tested on: duodenum
Test: Antispasmodic activity: barium chloride-induced contraction of isolated rat duodenum (Magnus)
Settings: barium chloride 10^-4 M, isolated rat duodenum, 37° C.; mean of 5 to 6 determinations
Description: Fragments of duodenum are removed from male rats (200 g), fasted for 24 hours and killed by decapitation, and are mounted, after being washed, in a thermostatted (37° C.) isolated organ cell and maintained in survival in Tyrode's solution according to Magnus's classical technique.
The spasmogenic agent used is barium chloride (10^-4 M).
In the first instance, the spasmogenic agent is added to the nutrient bath and, as soon as the contraction of the organ reaches its maximum, the relaxant agent is added to the medium. Working in relation to a fixed concentration of barium chloride with variable concentrations of relaxant, the ED50 of the latter, capable of reducing the induced contraction by 50%, is determined.
The results expressed in Table IV below show the ratio ED50 Theo/ED50 product, established on the basis of the mean of the results of 5 to 6 determinations per product (ED50theophylline=8×10^-4 M).

Row | SMILES | ED50 Theo/ED50 product (antispasmodic activity)
1 | CCNc1ncc(Cl)n2ccnc12 [Compound 12, 5-Chloro-8-ethylaminoimidazo[1,2-a]pyrazine] | 27

Tested on: mice
Test: Motor activity: spontaneous activity in mice (neurosedative effect)
Format: in vivo, mouse
Settings: 55 μmol/kg intraperitoneally, male mice, 50 minutes
Description: The measurement of the neurosedative effect is based on the test of activity measurements in mice. […] Five minutes after the administration, the animals are placed in activity-measuring cages, which record their movements digitally by means of the interruption of beams of light. The results are recorded in Table IX and expressed as the percentage variation (increase or decrease ) in activity compared with the controls during a period of 50 minutes following the administration.

Row | SMILES | spontaneous activity - % variation compared with the controls, decrease (.dwnarw.) [%]
2 | CCOC(=O)c1cn2cc(Br)nc(NC)c2n1 [Compound 23, ethyl 6-bromo-8-methylaminoimidazo[1,2-a]pyrazine-2-carboxylate] | 43

Same assay, conditions: 166 μmol/kg intraperitoneally, male mice, 50 minutes

Row | SMILES | spontaneous activity - % variation compared with the controls, decrease (.dwnarw.) [%]
3 | CCOC(=O)c1cn2cc(Br)nc(NC)c2n1 [Compound 23, ethyl 6-bromo-8-methylaminoimidazo[1,2-a]pyrazine-2-carboxylate] | 56

Tested on: histamine-induced bronchoconstriction, guinea pigs
Test: Antibronchospastic activity: histamine-induced bronchospasm in anesthetized guinea pigs
Format: in vivo, guinea pig
Settings: intravenous, 30 seconds before histamine; mean of 5 to 8 determinations
Description: Guinea pigs of both sexes weighing between 400 and 600 g are anesthetized with ethyl carbamate ([…] i.p.). After tracheotomy, the animal is placed under artificial respiration at a constant flowrate (Palmer pump 1 m1/100 g×60/min). A take-off at the tracheal cannula enables the volume of air to be gaged at each inhalation by means of a Marey drum. Bronchospasm is induced by intraveneous (jugular) administration of histamine. For each animal, the dose of histamine (8 to 12 μg/kg) inducing an increase in the recording trace equal to double its initial value is determined. The dose adopted should provide three identical responses at intervals of 10 minutes.
The test product is administered intraveneously and then, 30 seconds later, histamine is administered again.

Row | SMILES | ED50 Theo/ED50 product (bronchospasm induced in guinea pigs)
4 | Nc1nccn2c(Br)cnc12 [Compound 5, 8-amino-3-bromoimidazo[1,2-a]pyrazine] | 2
5 | Brc1cn2ccnc2c(N2CCOCC2)n1 [Compound 11, 6-bromo-8-morpholinoimidazo[1,2-a]pyrazine] | 1
6 | Nc1nc(Br)cn2c(Br)cnc12 [Compound 13, 8-Amino-3,6-dibromoimidazo[1,2-a]pyrazine] | 3.5
7 | CNc1nc(Br)cn2c(Br)cnc12 [Compound 14, 3,6-dibromo-8-methylaminoimidazo[1,2-a]pyrazine] | 1.9
8 | CCNc1nc(Br)cn2c(Br)cnc12 [Compound 15, 3,6-dibromo-8-ethylaminoimidazo[1,2-a]pyrazine] | 1.6
9 | Brc1cn2c(Br)cnc2c(N2CCOCC2)n1 [Compound 16, 3,6-dibromo-8-morpholinoimidazo[1,2-a]pyrazine] | 1
10 | CCOC(=O)c1cn2ccnc(NC)c2n1 [Compound 18, ethyl 8-methylaminoimidazo[1,2-a]pyrazine-2-carboxylate] | 1
11 | CCCNc1nccn2cc(C(=O)OCC)nc12 [Compound 19, ethyl 8-propylaminoimidazo[1,2-a]pyrazine-2-carboxylate] | < 1
12 | CCOC(=O)c1cn2ccnc(N3CCCCC3)c2n1 [Compound 20, ethyl 8-piperidylimidazo[1,2-a]pyrazine-2-carboxylate] | 1
13 | CCOC(=O)c1cn2ccnc(N3CCOCC3)c2n1 [Compound 21, ethyl 8-morpholinylimidazo[1,2-a]pyrazine-2-carboxylate] | < 1
14 | CCOC(=O)c1cn2cc(Br)nc(N)c2n1 [Compound 22, ethyl 8-amino-6-bromoimidazo[1,2-a]pyrazine-2-carboxylate] | 1.5
15 | CCOC(=O)c1cn2cc(Br)nc(NC)c2n1 [Compound 23, ethyl 6-bromo-8-methylaminoimidazo[1,2-a]pyrazine-2-carboxylate] | 1
16 | CCNc1nc(Br)cn2cc(C(=O)OCC)nc12 [Compound 24, ethyl 6-bromo-8-ethylaminoimidazo[1,2-a]pyrazine-2-carboxylate] | 1
17 | CCCNc1nc(Br)cn2cc(C(=O)OCC)nc12 [Compound 25, ethyl 6-bromo-8-propylaminoimidazo[1,2-a]pyrazine-2-carboxylate] | < 1
18 | CCCCNc1nc(Br)cn2cc(C(=O)OCC)nc12 [Compound 26, ethyl 6-bromo-8-butylaminoimidazo[1,2-a]pyrazine-2-carboxylate] | < 1
19 | CCOC(=O)c1cn2cc(Br)nc(NC(C)CC)c2n1 (centres unmarked) [Compound 27, ethyl 6-bromo-8-sec-butylaminoimidazo[1,2-a]pyrazine-2-carboxylate] | < 1
20 | CCOC(=O)c1cn2cc(Br)nc(N3CCCCC3)c2n1 [Compound 28, ethyl 6-bromo-8-piperidylimidazo[1,2-a]pyrazine-2-carboxylate] | < 1
21 | CCOC(=O)c1cn2cc(Br)nc(N3CCOCC3)c2n1 [Compound 29, ethyl 6-bromo-8-morpholinylimidazo[1,2-a]pyrazine-2-carboxylate] | 1
22 | CCOC(=O)c1cn2cc(Br)nc(NCCO)c2n1 [Compound 30, ethyl 6-bromo-8-(2-hydroxyethylamino)imidazo[1,2-a]pyrazine-2-carboxylate] | < 1
23 | CNc1nc(Br)cn2cc(C(N)=O)nc12 [Compound 31, 6-Bromo-8-methylaminoimidazo[1,2-a]pyrazine-2-carboxamide] | 1
24 | CCOC(=O)Cc1cn2cc(Br)nc(N)c2n1 [Compound 32, ethyl 8-amino-6-bromoimidazo[1,2-a]pyrazine-2-acetate] | 1.6
25 | CCOC(=O)Cc1cn2cc(Br)nc(NC)c2n1 [Compound 33, Ethyl 6-bromo-8-methylaminoimidazo[1,2-a]pyrazine-2-acetate] | 1
26 | CNC(=O)c1nc2c(NC)nc(Cl)c(Cl)n2c1Cl [Compound 34, 3,5,6-Trichloro-8-methylamino-N-methylimidazo[1,2-a]pyrazine-2-carboxamide] | 1.2
27 | N#Cc1cn2cc(Br)nc(N3CCOCC3)c2n1 [Compound 35, 6-Bromo-8-morpholinoimidazo[1,2-a]pyrazine-2-carbonitrile] | < 1
28 | Brc1cn2ccnc2c(NCc2ccco2)n1 [Compound 36, 6-bromo-8-furfurlaminoimidazo[1,2-a]pyrazine] | < 1
29 | Brc1cn2c(Br)cnc2c(NCc2ccco2)n1 [Compound 37, 3,6-dibromo-8-furfurylaminoimidazo[1,2-a]pyrazine] | 1.4
30 | Brc1cn2c(Br)cnc2c(N2CCCCC2)n1 [Compound 38, 3,6-dibromo-8-piperidylimidazo[1,2-a]pyrazine] | 1.1

Tested on: guinea pig trachea
Test: Isolated guinea pig trachea: anti-contractional activity against carbachol
Settings: carbachol 10^-4 M, isolated guinea pig trachea; mean of 5 to 6 determinations
Description: Guinea pigs of both sexes weighing on average 400 to 600 g are sacrificed, and the tracheas are removed and placed at 37° C. in an oxygenated environment (95% O2 -5% CO2) in Krebs fluid of the following composition (mM): NaCl (116), MgSO4 (1.2), KCl (3.7), CaCl2 (2.6), KH2 PO4 (2.2), NaHCO3 (24.9), glucose (10). The tracheal segments are then mounted horizontally between two hooks, one of which is fixed to the base of the isolated organ cell and the other is attached to a myograph under a tension of 0.5 g. The organ is left at rest for one hour and is subjected to four washes. The contraction-inducing reagent (carbachol) is added at a concentration (10^-4 M) greater than the concentration giving the maximum effect. After stabilization of the contractional effect, gradually increasing accumulative amounts of the test products are added to the cell. The bronchodilatory effect is measured as the percentage inhibition of the maximal contraction and EC50 represents the concentration inhibiting this concentration by 50%.

Row | EC50 Theo/EC50 product (anti-contractional activity, trachea) | SMILES
31 | 1.5 | Nc1nccn2ccnc12 [Compound 1, 8-aminoimidazo[1,2-a]pyrazine]
32 | < 1 | CNc1nccn2ccnc12 [Compound 2, 8-methylaminoimidazo[1,2-a]pyrazine]
33 | 1 | CCNc1nccn2ccnc12 [Compound 3, 8-ethylaminoimidazo[1,2-a]pyrazine]
34 | < 1 | c1cn2ccnc2c(N2CCOCC2)n1 [Compound 4, 8-Morpholinoimidazo[1,2-a]pyrazine]
35 | 11 | Nc1nccn2c(Br)cnc12 [Compound 5, 8-amino-3-bromoimidazo[1,2-a]pyrazine]
36 | 5 | CCNc1nccn2c(Br)cnc12 [Compound 7]
37 | < 1 | Brc1cn2ccnc2c(N2CCOCC2)n1 [Compound 11, 6-bromo-8-morpholinoimidazo[1,2-a]pyrazine]
38 | < 1 | c1coc(CNc2nccn3ccnc23)c1 [Compound 39, 8-furfurylaminoimidazo[1,2-a]pyrazine]
